Assay results taken from ChEMBL document CHEMBL5532655, “Discovery of (R)-4-(8-methoxy-2-methyl-1-(1-phenylethy)-1H-imidazo[4,5-c]quinnolin-7-yl)-3,5-dimethylisoxazole as a potent and selective BET inhibitor for treatment of acute myeloid leukemia (AML) guided by FEP calculation” (Eur J Med Chem, 2024).

Tests used:
Test in all cases: cells
Jurkat = conditions: Homo sapiens, 48 h
Description: Antiproliferative activity against human Jurkat cells assessed as inhibition of cell growth incubated for 48 hrs by MTT assay

MV4-11 = conditions: Homo sapiens, MV4-11, 48 h
Description: Antiproliferative activity against human MV4-11 cells assessed as inhibition of cell growth incubated for 48 hrs by MTT assay

MM1.S = conditions: Homo sapiens, 48 h
Description: Antiproliferative activity against human MM1.S cells assessed as inhibition of cell growth incubated for 48 hrs by MTT assay

MOLM-13 = conditions: Homo sapiens, MOLM-13, 48 h
Description: Antiproliferative activity against human MOLM-13 cells assessed as inhibition of cell growth incubated for 48 hrs by MTT assay

| SMILES | IC50 (Jurkat) [µM] | IC50 (MV4-11) [µM] | IC50 (MM1.S) [µM] | IC50 (MOLM-13) [µM] |
| --- | --- | --- | --- | --- |
| COc1cc2c(cc1-c1c(C)n[nH]c1C)ncc1nc(C)n([C@@H](C)c3ccccc3)c12 | 16.5 | 0.53 | 8.92 | 13.1 |
| COc1cc2c(cc1-c1cnn(C)c1)ncc1nc(C)n([C@H](C)c3ccccn3)c12 | 9.87 | 2.6 | 5.84 | 3.55 |
| COc1cc2c(cc1-c1cnn(C)c1)ncc1nc(C)n([C@@H](C)c3ccccc3)c12 | 2.14 | 0.62 | 11.5 | > 20 |
| COc1ccc(-n2c(C)nc3cnc4cc(-c5ccc(C(F)(F)F)cc5)c(OC)cc4c32)cc1 | > 20 | 5.64 | > 20 | > 20 |
| COc1ccc(-c2cc3ncc4nc(C)n([C@@H](C)c5ccccc5)c4c3cc2OC)cc1CO | > 20 | 18 | 13.5 | > 20 |
| COc1cc2c(cc1-c1c(C)noc1C)ncc1nc(C)n([C@@H](C)c3ccccc3)c12 | 16.6 | 2.02 | 11.2 | 12.5 |
| COc1ccc(-n2c(C)nc3cnc4cc(-c5ccc(OC)c(CO)c5)c(OC)cc4c32)cc1 | > 20 | 17.9 | 11 | > 20 |
| COc1cc2c(cc1-c1cnn(C)c1)ncc1nc(C)n([C@H](C)c3ccccc3)c12 | > 20 | 6.83 | 6.9 | > 20 |
| COc1ccc(-n2c(C)nc3cnc4cc(-c5cc(C)cc(C)c5)c(OC)cc4c32)cc1 | > 20 | > 20 | 12 | > 20 |
| COc1cc2c(cc1-c1cc(C)cc(C)c1)ncc1nc(C)n([C@@H](C)c3ccccc3)c12 | > 20 | 6.24 | 5.92 | > 20 |
| COc1ccc(-n2c(C)nc3cnc4cc(-c5c(C)noc5C)c(OC)cc4c32)cc1 | > 20 | 1.22 | 9.3 | 11.6 |
| COc1ccc(-n2c(C)nc3cnc4cc(-c5cnn(C)c5)c(OC)cc4c32)cc1 | > 20 | 9.71 | 3.23 | > 20 |
| COc1cc2c(cc1-c1cnc3[nH]ccc3c1)ncc1nc(C)n(C(C)c3ccccc3)c12 (stereo not given) | 15.6 | 6.13 | 10.1 | 6.85 |
| COc1cc2c(cc1-c1ccc3[nH]ccc3c1)ncc1nc(C)n([C@@H](C)c3ccccc3)c12 | > 20 | 2.21 | 13.7 | 9.7 |
| COc1ccc(-n2c(C)nc3cnc4cc(-c5ccc(C)cc5)c(OC)cc4c32)cc1 | > 20 | > 20 | 6.34 | > 20 |
| COc1cc2c(cc1-c1c(C)noc1C)ncc1nc(C)n(C3CCOCC3)c12 | > 20 | 1.02 | 1.85 | 5.15 |
| COc1ccc(-n2c(C)nc3cnc4cc(-c5ccc(O)cc5)c(OC)cc4c32)cc1 | 15 | 4.96 | 2.44 | 18.3 |
| COc1ccc(-n2c(C)nc3cnc4cc(-c5cnccc5OC)c(OC)cc4c32)cc1 | > 20 | > 20 | 5.67 | > 20 |
| COc1ccc(-c2cc3ncc4nc(C)n(-c5ccc(OC)cc5)c4c3cc2OC)cc1 | > 20 | 4.41 | 12.5 | 15.6 |
| COc1ccc(-n2c(C)nc3cnc4cc(-c5c(C)n[nH]c5C)c(OC)cc4c32)cc1 | > 20 | 10.6 | 3.12 | > 20 |
| COc1cc2c(cc1-c1cnc(N)nc1)ncc1nc(C)n([C@@H](C)c3ccccc3)c12 | > 20 | > 20 | 9.23 | > 20 |

Now from value to compound:

| IC50 (Jurkat) [µM] | IC50 (MV4-11) [µM] | IC50 (MM1.S) [µM] | IC50 (MOLM-13) [µM] | SMILES |
| --- | --- | --- | --- | --- |
| > 20 | > 20 | 7.4 | 10.9 | COc1ccncc1-c1cc2ncc3nc(C)n([C@@H](C)c4ccccc4)c3c2cc1OC |
| 4.53 | 5 | 9.09 | 10.1 | COc1cc2c(cc1-c1ccc(C#N)cc1)ncc1nc(C)n([C@@H](C)c3ccccc3)c12 |
| > 20 | > 20 | > 20 | > 20 | COc1ccc(-n2c(C)nc3cnc4cc(-c5cnc(N)nc5)c(OC)cc4c32)cc1 |
| > 20 | 1.05 | 7.06 | 10.1 | COc1cc2c(cc1-c1c(C)noc1C)ncc1nc(C)n(-c3ccc(CC#N)cc3)c12 |
| > 20 | 10.4 | 8.69 | 19.1 | COc1cc2c(cc1-c1ccc3nc[nH]c3c1)ncc1nc(C)n([C@@H](C)c3ccccc3)c12 |
| > 20 | 2.25 | 5.79 | 8.42 | COc1cc2c(cc1-c1ccc(O)cc1)ncc1nc(C)n([C@@H](C)c3ccccc3)c12 |
| > 20 | 2.85 | 9.48 | 2.49 | COc1cc2c(cc1-c1ccc(F)cc1)ncc1nc(C)n([C@@H](C)c3ccccc3)c12 |
| > 20 | 10.9 | > 20 | 0.44 | COc1cc2c(cc1-c1c(C)n[nH]c1C)ncc1nc(C)n([C@H](C)c3ccccn3)c12 |
| > 20 | 8.3 | 6.02 | 4.99 | COc1cc2c(cc1-c1ccc(C)cc1)ncc1nc(C)n([C@@H](C)c3ccccc3)c12 |
| > 20 | 4.63 | 2.34 | 12.8 | COc1cc2c(cc1-c1c(C)noc1C)ncc1nc(C)n(-c3ccc(C#N)cc3)c12 |
| > 20 | 11.1 | 12.4 | > 20 | COc1ccc(-n2c(C)nc3cnc4cc(-c5ccc(C(C)=O)cc5)c(OC)cc4c32)cc1 |
| 4.71 | 18.6 | 13 | > 20 | COc1ccc(-n2c(C)nc3cnc4cc(-c5cnc6[nH]ccc6c5)c(OC)cc4c32)cc1 |
| 16.1 | 1.29 | 3.55 | 6.4 | COc1cc2c(cc1-c1c(C)noc1C)ncc1nc(C)n([C@H](C)c3ccccn3)c12 |
| 11.2 | 9.21 | 5.78 | 11.3 | COc1ccc(-n2c(C)nc3cnc4cc(-c5ccc(N)nc5)c(OC)cc4c32)cc1 |
| 5.46 | 13.1 | 4.84 | 4.12 | COc1ccc(-c2cc3ncc4nc(C)n([C@@H](C)c5ccccc5)c4c3cc2OC)cc1 |
| 12.9 | 12.5 | 11.6 | 4.73 | COc1cc2c(cc1-c1ccc(C(C)=O)cc1)ncc1nc(C)n([C@@H](C)c3ccccc3)c12 |
| 17.2 | 5.33 | 5.8 | > 20 | COc1ccc(-n2c(C)nc3cnc4cc(-c5ccc6nc[nH]c6c5)c(OC)cc4c32)cc1 |
| > 20 | 5.39 | 7.9 | > 20 | COc1ccc(-n2c(C)nc3cnc4cc(-c5ccc(C#N)cc5)c(OC)cc4c32)cc1 |
| 16.4 | 5 | 11.9 | 0.91 | COc1cc2c(cc1-c1ccc(C(F)(F)F)cc1)ncc1nc(C)n([C@@H](C)c3ccccc3)c12 |
| 15.1 | 9.93 | 9.8 | > 20 | COc1ccc(-n2c(C)nc3cnc4cc(-c5ccc6[nH]ccc6c5)c(OC)cc4c32)cc1 |
| 15.2 | 1.4 | 5.69 | 4.74 | COc1cc2c(cc1-c1ccc(N)nc1)ncc1nc(C)n([C@@H](C)c3ccccc3)c12 |
| 11.1 | 3.25 | 4.04 | 7.16 | COc1cc2c(cc1-c1ccc(N)cc1)ncc1nc(C)n([C@@H](C)c3ccccc3)c12 |
| > 20 | > 20 | 9.8 | > 20 | COc1ccc(-n2c(C)nc3cnc4cc(-c5ccc(N)cc5)c(OC)cc4c32)cc1 |
| > 20 | 11 | > 20 | > 20 | COc1ccc(-n2c(C)nc3cnc4cc(-c5ccc(F)cc5)c(OC)cc4c32)cc1 |
